# Experimental data from patent publication US9708312B2, “Dihydropyrimidinoisoquinolinones and pharmaceutical compositions thereof for the treatment of inflammatory disorders (GPR84 antagonists)” (GALAPAGOS NV, priority 2012, dated 2017).
# Test system: human neutrophils
# Experiment: Human neutrophil migration assay (embelin-induced chemotaxis)
# Format: cell-based
# Conditions: Neutrophil; neutrophils from human buffy coats; embelin at EC80
# Protocol: 2.1. Human Neutrophil Migration Assay
# The effect of agonists or antagonists for GPR84 can therefore be assayed in a neutrophil migration test. In the neutrophil migration assay, neutrophils, freshly isolated from buffy coats from human volunteers, are treated with a compound for 30 min Subsequently, the neutrophils are transferred to the upper wells of a Corning HTS transwell 96 permeable support system, of which the lower wells are filled with a embelin solution at EC80 (concentration which gives 80% of the activity of GPR84). After 1 h of incubation, migration of the neutrophils towards embelin in the lower compartment can be quantified by measuring the ATP-content of the lower wells using the ATPlite luminescence ATP detection assay system (Perkin Elmer, Cat. No.: 436110).
# 2.1.1 Isolation of Neutrophils from Human Buffy Coat
# A human buffy coat is diluted with an equal volume of ice cold DPBS. 20 mL of the diluted buffy coat is gently mixed with 4 mL of ACD buffer (140 mM citric acid, 200 mM sodium citrate and 220 mM dextrose). Then, 12 mL of the 6% dextran/0.9% NaCl solution (15 g dextran T2000 and 2.25 g NaCl dissolved in 250 mL H2O) is added to the mixture and the samples are inverted gently up to 20 times. The total volume was transferred to a new recipient and incubated at room temperature for 1 h for complete separation of the two phases to occur. The yellowish supernatant is then transferred to a clean centrifugation tube and centrifuged for 12 min at 1300 rpm and 4° C. After centrifugation, the supernatant is discarded and the remaining cell pellet is rapidly resuspended in 12 mL of ice-cold H2O for red blood cell lysis to occur. After 20 seconds, 4 mL of ice-cold 0.6 M KCl is added. Samples are mixed carefully and centrifuged for 6 min at 1300 rpm, 4° C. The supernatant is discarded and the red blood cell lysis procedure is repeated one more time. Subsequently, the cell pellet is resuspended in 4 mL of DPBS and layered over 5 mL of Lymphoprep (Nycomed Pharma, Cat. No.: 1114545) in a 15 mL centrifuge tube. After centrifugation for 12 min at 1300 rpm, 4° C., the supernatant is removed and the cell pellet, containing the neutrophils, is resuspended in 25 mL chemotaxis buffer (RPMI 1640 medium, supplemented with 10 mM HEPES; freshly made for each experiment)
# A cell suspension of 8.9×10^6 cells per milliliter is prepared. 20 μL of compound solution in chemotaxis buffer is added to 180 μL cell suspension. The mixture is incubated at 37° C. for 30 min with intermediate resuspension of the cells after 15 min Following this, 70 μL cell suspension is transferred to the upper compartment of a Corning HTS transwell 96 permeable support system with 5.0 μm pore size polycarbonate membrane (Corning, Cat. No.: 3387). The receiver well of the transwell system is then filled with 200 μL chemotaxis buffer containing compound and chemotactic agent (embelin). After incubation at 37° C. in 5% CO2 for 1 h, the upper plate of the transwell system is removed and the cell suspension in the receiver plate is transferred to a 96-well V-bottom plate. 50 μL of DPBS is added to the receiver plate to prevent remaining cells from drying out. The V-bottom plate is centrifuged for 6 min at 1500 rpm. The supernatant is removed and the cells are resuspended in 50 μL DPBS. The cells are then transferred back to the receiver plate of the transwell system. After this, 100 μL ATPlite solution (Perkin Elmer, Cat. No: 436110) was added to the cells. The plate is incubated for 10 min in the dark, while shaking. […] of cell lysate is then transferred to a white 96-well plate and luminescence is measured. The detected luminescent signal is considered as linearely related to the number of cells having migrated from the upper well to the receiver well.
row,IC50 [nM],SMILES
1,0.01 to 100,"O=C(COc1ccc2c(c1)CCn1c-2cc(OCC2COc3ccccc3O2)nc1=O)N1CCCC1 (stereo not drawn) [compound 74, 2-(2,3-dihydro-benzo[1,4]dioxin-2-ylmethoxy)-9-(2-oxo-2-pyrrolidin-1-yl-ethoxy)-6,7-dihydro-pyrimido[6,1-a]isoquinolin-4-one]"

# Target: T1, GPR84 (Homo sapiens, UniProt Q9NQS5)
# T1 construct: expressed in transfected cells
# Experiment: GPR84 [35S]GTPγS binding assay, HEPES buffer
# Format: biochemical
# Conditions: 3,3′ di indolylmethane at EC80, membranes from stable cell line over expressing GPR84
# Outline: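 Membranes from a stable GPR84-overexpressing cell line (20 μg/well), pre-incubated with 0.1 μM GDP for 15 min at 4° C, mixed with 0.1 nM [35S]GTPγS and WGA SpA beads in 20 mM HEPES pH 7.4, 5 mM MgCl2, 250 mM NaCl, 0.05% BSA, 75 ug/mL saponin. Incubated 90 min at room temperature; scintillation proximity read after centrifugation.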
# T1 sequence (Q9NQS5 whole entry): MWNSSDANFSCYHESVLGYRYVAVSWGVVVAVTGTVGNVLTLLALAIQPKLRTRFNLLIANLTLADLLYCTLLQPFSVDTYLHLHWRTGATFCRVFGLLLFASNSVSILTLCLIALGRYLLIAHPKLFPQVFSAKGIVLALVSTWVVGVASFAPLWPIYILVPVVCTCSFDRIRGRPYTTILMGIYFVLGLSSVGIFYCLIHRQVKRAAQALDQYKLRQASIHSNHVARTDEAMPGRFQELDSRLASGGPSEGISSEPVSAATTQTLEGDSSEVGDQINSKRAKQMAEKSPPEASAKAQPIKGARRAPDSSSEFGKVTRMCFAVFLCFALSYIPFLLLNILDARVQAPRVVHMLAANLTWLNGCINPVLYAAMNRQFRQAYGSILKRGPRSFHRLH
row,IC50 [nM],SMILES
1,100 to 500,"O=C(COc1ccc2c(c1)CCn1c-2cc(OCC2COc3ccccc3O2)nc1=O)N1CCCC1 (stereo not drawn) [compound 74, 2-(2,3-dihydro-benzo[1,4]dioxin-2-ylmethoxy)-9-(2-oxo-2-pyrrolidin-1-yl-ethoxy)-6,7-dihydro-pyrimido[6,1-a]isoquinolin-4-one]"

# Target: T1, GPR84
# Experiment: GPR84 [35S]GTPγS binding assay, Tris buffer (alternative)
# Format: biochemical
# Conditions: 3,3′ di indolylmethane at EC80, membranes from stable cell line over expressing GPR84, read-out: Alternative GPR84 assay GTPγS IC50 (GPR84-2)
# Protocol: 1.1. Cell Based Assay: GTp-γ S Binding Assay.
# The following assay can be used for determination of GPR84 activation. The [^35S]GTPγS binding assay measures the level of G protein activation following agonist occupation of a GPCR, by determining the binding of the non-hydrolysable analog [^35S]GTPγS to Gα subunits.
# Alternatively, the assay is performed in a 96 well plate where the following reagents are added. First 50 μL compound is added into the assay plate, followed by addition of 20 μL 3,3′ di indolylmethane at EC80 concentration (concentration which gives 80% of the activity of GPR84). In a last step, 30 μL of a mixture consisting of membranes-GTPγS-SpA beads is added [mixture consists of 20 μg/well membranes derived from stable cell line over expressing GPR84 (membranes are pre-incubated with 0.1 μM GDP for 15 min at 4° C.), 0.1 nM [^35S]GTPγS (Perkin Elmer, NEG030) and 0.5 mg/well PVT-WGA SpA beads (Perkin Elmer, RPNQ0001)]. All components are diluted in assay buffer containing 20 mM Tris pH 7.5; 5 mM MgCl2; 250 mM NaCl; 0.05% BSA; 75 ug/mL saponin Reactions are incubated for 90 min at room temperature followed by centrifugation at 2000 rpm during 15 min. Plates are read on a Topcount reader (Perkin Elmer) immediately after centrifugation (readout time, 1 min/well).
row,IC50 [nM],SMILES
1,500 to 1000,"O=c1nc(OCC2CCCO2)cc2n1CCc1cc(-c3cccc4ccccc34)ccc1-2 (stereo not drawn) [compound 114, 9-naphthalen-1-yl-2-(tetrahydro-furan-2-ylmethoxy)-6,7-dihydro-pyrimido[6,1-a]isoquinolin-4-one]"
2,500 to 1000,"O=c1nc(OCC2CCCO2)cc2n1CCc1cc(OCc3cccc4ccccc34)ccc1-2 (stereo not drawn) [compound 38, 9-(naphthalen-1-ylmethoxy)-2-(tetrahydro-furan-2-ylmethoxy)-6,7-dihydro-pyrimido[6,1-a]isoquinolin-4-one]"
3,100 to 500,"Cc1cccc(COc2ccc3c(c2)CCn2c-3cc(OCC3CCCO3)nc2=O)c1 (stereo not drawn) [compound 34, 9-(3-methyl-benzyloxy)-2-(tetrahydro-furan-2-ylmethoxy)-6,7-dihydro-pyrimido[6,1-a]isoquinolin-4-one]"
4,0.01 to 100,"O=c1nc(OCC2COc3ncccc3O2)cc2n1CCc1cc(-c3ccc4[nH]ncc4c3)ccc1-2 (stereo not drawn) [compound 127, 2-(2,3-Dihydro-[1,4]dioxino[2,3-b]pyridin-2-ylmethoxy)-9-(1H-indazol-5-yl)-6,7-dihydro-pyrimido[6,1-a]isoquinolin-4-one]"
5,500 to 1000,"CC(C)(C)C#Cc1ccc2c(c1)CCn1c-2cc(OCC2CCCO2)nc1=O (stereo not drawn) [compound 120, 9-(3,3-dimethyl-but-1-ynyl)-2-(tetrahydro-furan-2-ylmethoxy)-6,7-dihydro-pyrimido[6,1-a]isoquinolin-4-one]"
6,100 to 500,"O=c1nc(OCC2CCCO2)cc2n1CCc1cc(C#CC3CC3)ccc1-2 (stereo not drawn) [compound 119, 9-cyclopropylethynyl-2-(tetrahydro-furan-2-ylmethoxy)-6,7-dihydro-pyrimido[6,1-a]isoquinolin-4-one]"
7,0.01 to 100,"NC(=O)c1cccc(-c2ccc3c(c2)CCn2c-3cc(OCC3COc4ncccc4O3)nc2=O)c1 (stereo not drawn) [compound 129, 3-[2-(2,3-Dihydro-[1,4]dioxino[2,3-b]pyridin-2-ylmethoxy)-4-oxo-6,7-dihydro-4H-pyrimido[6,1-a]isoquinolin-9-yl]-benzamide]"
8,0.01 to 100,"O=c1nc(OCC2COc3ncccc3O2)cc2n1CCc1cc(-c3cncnc3)ccc1-2 (stereo not drawn) [compound 128, 2-(2,3-dihydro-[1,4]dioxino[2,3-b]pyridin-2-ylmethoxy)-9-pyrimidin-5-yl-6,7-dihydro-pyrimido[6,1-a]isoquinolin-4-one]"
9,0.01 to 100,"O=c1nc(OCC2COc3ncccc3O2)cc2n1CCc1cc(-c3cccnc3)ccc1-2 (stereo not drawn) [compound 124, 2-(2,3-Dihydro-[1,4]dioxino[2,3-b]pyridin-2-ylmethoxy)-9-pyridin-3-yl-6,7-dihydro-pyrimido[6,1-a]isoquinolin-4-one]"
10,100 to 500,"Cc1noc(C)c1-c1ccc2c(c1)CCn1c-2cc(OCC2CCCO2)nc1=O (stereo not drawn) [compound 112, 9-(3,5-dimethyl-isoxazol-4-yl)-2-(tetrahydro-furan-2-ylmethoxy)-6,7-dihydro-pyrimido[6,1-a]isoquinolin-4-one]"
11,100 to 500,"COc1ccccc1-c1ccc2c(c1)CCn1c-2cc(OCC2COc3ncccc3O2)nc1=O (stereo not drawn) [compound 126, 2-(2,3-dihydro-[1,4]dioxino[2,3-b]pyridin-2-ylmethoxy)-9-(2-methoxy-phenyl)-6,7-dihydro-pyrimido[6,1-a]isoquinolin-4-one]"
12,0.01 to 100,"O=c1nc(OCC2COc3ncccc3O2)cc2n1CCc1cc(C#CCCO)ccc1-2 (stereo not drawn) [compound 133, 2-(2,3-dihydro-[1,4]dioxino[2,3-b]pyridin-2-ylmethoxy)-9-(4-hydroxy-but-1-ynyl)-6,7-dihydro-pyrimido[6,1-a]isoquinolin-4-one]"
13,0.01 to 100,"Cc1noc(COc2ccc3c(c2)CCn2c-3cc(OCC3COc4ncccc4O3)nc2=O)n1 (stereo not drawn) [compound 135, 2-(2,3-dihydro-[1,4]dioxino[2,3-b]pyridin-2-ylmethoxy)-9-(3-methyl-[1,2,4]oxadiazol-5-ylmethoxy)-6,7-dihydro-pyrimido[6,1-a]isoquinolin-4-one]"
14,500 to 1000,"O=c1nc(OCC2CCCO2)cc2n1CCc1cc(-c3ccc(Cl)s3)ccc1-2 (stereo not drawn) [compound 116, 9-(5-chloro-thiophen-2-yl)-2-(tetrahydro-furan-2-ylmethoxy)-6,7-dihydro-pyrimido[6,1-a]isoquinolin-4-one]"
15,0.01 to 100,"O=c1nc(OCC2CCCO2)cc2n1CCc1cc(-c3ccc4ccccc4c3)ccc1-2 (stereo not drawn) [compound 113, 9-naphthalen-2-yl-2-(tetrahydro-furan-2-ylmethoxy)-6,7-dihydro-pyrimido[6,1-a]isoquinolin-4-one]"
16,100 to 500,"CN(C)c1ccccc1-c1ccc2c(c1)CCn1c-2cc(OCC2COc3ncccc3O2)nc1=O (stereo not drawn) [compound 130, 2-(2,3-Dihydro-[1,4]dioxino[2,3-b]pyridin-2-ylmethoxy)-9-(2-dimethylamino-phenyl)-6,7-dihydro-pyrimido[6,1-a]isoquinolin-4-one]"
17,0.01 to 100,"O=c1nc(OCC2COc3ncccc3O2)cc2n1CCc1cc(C#CCO)ccc1-2 (stereo not drawn) [compound 138, 2-(2,3-dihydro-[1,4]dioxino[2,3-b]pyridin-2-ylmethoxy)-9-(3-hydroxy-prop-1-ynyl)-6,7-dihydro-pyrimido[6,1-a]isoquinolin-4-one]"
18,0.01 to 100,"N#CCCC#Cc1ccc2c(c1)CCn1c-2cc(OCC2COc3ncccc3O2)nc1=O (stereo not drawn) [compound 143, 5-[2-(2,3-dihydro-[1,4]dioxino[2,3-b]pyridin-2-ylmethoxy)-4-oxo-6,7-dihydro-pyrimido[6,1-a]isoquinolin-9-yl]-pent-4-ynenitrile]"
19,100 to 500,"COc1ccc(-c2ccc3c(c2)CCn2c-3cc(OCC3CCCO3)nc2=O)cn1 (stereo not drawn) [compound 110, 9-(6-methoxy-pyridin-3-yl)-2-(tetrahydro-furan-2-ylmethoxy)-6,7-dihydro-pyrimido[6,1-a]isoquinolin-4-one]"
